# Source: US20160169914A1, “KINETICS BIOMARKERS FOR NEURODEGENERATION” (KineMed, Inc., priority 2014, published 2016)
# Legend:
# [1] = cited from earlier work
# ALS = conditions: approved by the FDA in 1995; cited from earlier work
# [2] = Tolerability of high body water enrichments of 2H2O; assay type: in vivo, human; conditions: 1-10% of total body water labeled, maintained for weeks or months; humans (>100 persons) and experimental animals
# Description: Relatively high body water enrichments of ^2H2O (e.g., 1-10% of the total body water is labeled) may be achieved relatively inexpensively using the techniques of the invention. […] This finding in a large number of human subjects (>100 persons) is contrary to previous concerns about vestibular toxicities at high doses of ^2H2O. One of the Applicants has discovered that as long as rapid changes in body water enrichment are prevented (e.g., by initial administration in small, divided doses), high body water enrichments of ^2H2O can be maintained with no toxicities. For example, the low expense of commercially available ^2H2O allows long-term maintenance of enrichments in the 1-5% range at relatively low expense (e.g., calculations reveal a lower cost for 2 months labeling at 2% ^2H2O enrichment, and thus 7-8% enrichment in the alanine precursor pool, than for 12 hours labeling of ^2H-leucine at 10% free leucine enrichment, and thus 7-8% enrichment in leucine precursor pool for that period).
# [3] = test system: BDNF (brain-derived neurotrophic factor) transport rate; conditions: PD patients
# Description: Statistical significance was assessed by 1-way ANOVA with Tukey post-hoc testing. A P value less than 0.05 was considered statistically significant (* P<0.05). […] Solid lines indicate regression; dashed lines indicate 95% confidence intervals. The statistical test that generated both the r^2 and P values was a linear regression (mean±SD were generated by technical replicates of repeated sample preparations and analyses).
# The study group consisted of symptomatic PD patients, all on standard anti-PD medications, and 6 non-PD volunteers. […] Unified PD Rating Scale, PART III, and Hoehn and Yahr scores were obtained for each subject. […] Compliance to the experimental protocol was monitored by the clinical staff through collection of blood plasma samples for body water enrichment. […]
# Purified cargo proteins were hydrolyzed by treatment with 6N HCl for 16 hours at 110° C. Protein derived amino acids were derivatized to pentafluorobenzyl derivatives, and ^2H incorporation in alanine released from total vesicular proteins was measured by GC/MS, as described elsewhere (Busch R, et al., Biochim Biophys Acta., 1760(5):730-44 (2006)). ^2H enrichment was calculated as the percent increase over the natural abundance of alanine derivative present as the (M+1) mass isotopomer (EM1) (Busch R, et al., Biochim Biophys Acta., 1760(5):730-44 (2006)). […]
smiles,measurement,setting,value
COc1ccc2c(c1OC)C(=O)O[C@@H]2[C@H]1c2c(cc3c(c2OC)OCO3)CCN1C [Noscapine],half-life in CNS tissue,[1]; CNS tissue (brain and spinal cord) and PNS,long half-life
same,blood brain barrier penetration,[1]; in vivo,penetrates the blood brain barrier
Nc1nc2ccc(OC(F)(F)F)cc2s1 [Riluzole],disease progression,ALS,only delays disease progression modestly
[2H]O[2H] [^2H2O],toxicity at high body water enrichment,[2],without any evidence of toxicity
C#CCN[C@@H]1CCc2ccccc21 [rasagiline],"deficits in transport rates of BDNF in CSF, compared to patients not treated with Azilect","[3]; rasagiline 1 mg/day, 1-way ANOVA with Tukey post-hoc, * P<0.05, FIG. 7 panel A",reduced deficits in transport rates of BDNF
same,correlation between reduced delays in rates of BDNF transport and duration of treatment,"[3]; duration of treatment in years prior to LP, linear regression, FIG. 7 panel B",strong correlation
